{
  "source": "paper PMC6267684",
  "about": "“Pharmacokinetic evaluation of the PNC disassembler metarrestin in wild-type and Pdx1-Cre;LSL-Kras^G12D/+;Tp53^R172H/+ (KPC) mice, a genetically engineered model of pancreatic cancer” (Cancer Chemotherapy and Pharmacology, 2018)",
  "test": "Pharmacokinetics in C57BL/6 mice after single IV and PO administration",
  "format": "in vivo",
  "conditions": "for Kp: liver/plasma, read-out: AUC0–∞ ratio (tissue/plasma); for AUC(0-t): read-out: AUC0–24h",
  "experimental": "For pharmacokinetic studies, metarrestin solutions prepared in 30% PEG-400 and 70% (20% w:v HP-β-CD in water) solution were administered to C57BL/6 mice at 3 mg/kg IV via tail vein injection, or 3 and 10 mg/kg orally via gavage. KPC mice were additionally treated with 25 mg/kg PO via gavage. The dosing volume was 3 mL/kg for IV route and 10 mL/kg for PO route. Dosing solutions were prepared on the day of administration. Blood samples were collected at 10, 20 min, 1, 2, 4, 7 and 24 h after 3 mg/kg IV administration. After oral administration of 3 and 10 mg/kg in C57BL6 mice, blood and liver samples were collected at 10 min, 0.5, 1, 2, 3, 5, 7, 9 and 24 h post dosing (n = 3 per time point). In KPC mice, blood, pancreatic tumor, spleen and liver samples were collected at 1, 2, 3, 6, 9, 12 and 24 h after 25 mg/kg PO administration.\nBlood samples were collected in K2EDTA tubes and plasma was harvested after centrifugation at 3000 rpm for 10 min. Tissue samples were weighed and flash-frozen for PK and PD mRNA expression analyses, embedded into OCT blocks for PNC determination and processed into FFPE blocks for histopathology assessment. All PK samples were stored at − 80 °C until analysis.\nAn ultra-performance liquid chromatography–tandem mass spectrometry (UPLC–MS/MS) method was developed to determine metarrestin concentrations in plasma and tissue samples. Mass spectrometric analysis was performed on a Waters Xevo TQ-S triple quadrupole instrument using electrospray ionization in positive mode. The separation was performed on an Acquity BEH C18 column (50 × 2.1 mm, 1.7 µ) using a Waters Acquity UPLC system with 0.6 mL/min flow rate and gradient elution. Mobile phase A was 0.1% formic acid in water, and B was 0.1% formic acid in acetonitrile (ACN). The column temperature was maintained at 60 °C. The calibration standards and quality control (QC) samples were prepared in the control blank mouse plasma and tissue homogenate. Tissues were homogenized with 3 or 6 volumes (v/w) of deionized water on the day of analysis. Proteins were precipitated from 10 µL plasma or 5 µL tissue homogenate with 200 µL ACN containing 100 ng/mL Tolbutamide as internal standard in 96-well plates. The mixture was vortexed for 2 min and centrifuged at 4000 rpm for 30 min at 4 °C. An aliquot of 150 µL supernatant was transferred to a 350-µL 96-well plate. 0.2 µL supernatant was injected for the UPLC–MS/MS analysis. Data were analyzed using MassLynx V4.1.\nThe pharmacokinetic parameters were calculated using the non-compartmental approach (Models 200 and 201) of the pharmacokinetic software Phoenix WinNonlin, version 6.4 (Certara, St. Louis, MO). The area under the plasma concentration vs time curve (AUC) was calculated using the linear trapezoidal method. The slope of the apparent terminal phase was estimated by log linear regression using at least three data points and the terminal rate constant (λ) was derived from the slope. AUC0–∞ was estimated as the sum of the AUC0–t (where t is the time of the last measurable concentration) and Ct/λ. The apparent terminal half-life (t½) was calculated as 0.693/λ.",
  "key": {"[1]": {"conditions": "C57BL/6, mouse, liver, po, 3 mg/kg, 3 mg/kg PO single dose"}, "[2]": {"conditions": "C57BL/6, mouse, liver, po, 10 mg/kg, 10 mg/kg PO single dose"}, "[3]": {"conditions": "C57BL/6, mouse, liver, 3 mg/kg PO single dose"}, "[4]": {"conditions": "C57BL/6, mouse, liver, 10 mg/kg PO single dose"}, "[5]": {"conditions": "C57BL/6, mouse, plasma, 3 mg/kg IV single dose"}, "[6]": {"conditions": "C57BL/6, mouse, plasma, 3 mg/kg PO single dose"}, "[7]": {"conditions": "C57BL/6, mouse, plasma, 10 mg/kg PO single dose"}},
  "note": "Like-named read-outs stand apart in the source and are kept apart here.",
  "data": [
    {"smiles": "N=c1c2c(-c3ccccc3)c(-c3ccccc3)n(Cc3ccccc3)c2ncn1[C@H]1CC[C@H](O)CC1", "note": "[metarrestin, Trans-4-(7-benzyl-4-imino-5,6-diphenyl-4,7-dihydro-3H-pyrrolo[2,3-d]pyrimidin-3-yl) cyclohexanol]", "values": [
      {"measurement": "Kp", "setting": "[1]", "result": "> 50"},
      {"measurement": "half-life", "setting": "[1]", "result": 4.7, "unit": "h"},
      {"measurement": "Kp", "setting": "[2]", "result": "> 50"},
      {"measurement": "half-life", "setting": "[2]", "result": 4.1, "unit": "h"},
      {"measurement": "half-life", "setting": "C57BL/6, mouse, plasma, intravenous, oral, 10 mg/kg, low doses of 3 and 10 mg/kg, span over groups", "result": "5 to 5.6", "unit": "h"},
      {"measurement": "half-life", "setting": "C57BL/6, mouse, plasma, iv, 3 mg/kg, 3 mg/kg IV single dose", "result": "~5", "unit": "h"},
      {"measurement": "half-life", "setting": "C57BL/6, mouse, plasma, po, 3 mg/kg, 3 mg/kg PO single dose", "result": 5.4, "unit": "h"},
      {"measurement": "bioavailability", "setting": "C57BL/6, mouse, plasma, po, 10 mg/kg, single oral dose 3 and 10 mg/kg via gavage", "result": "> 80", "unit": "%"},
      {"measurement": "half-life", "setting": "C57BL/6, mouse, plasma, po, 10 mg/kg, 10 mg/kg PO single dose", "result": 5.6, "unit": "h"},
      {"measurement": "AUC(0-inf)", "setting": "[3]", "result": 68600, "unit": "ng·h/mL"},
      {"measurement": "Cmax", "setting": "[3]", "result": 5420, "unit": "ng/mL"},
      {"measurement": "Tmax", "setting": "[3]", "result": 1, "unit": "h"},
      {"measurement": "AUC(0-t)", "setting": "[3]", "result": 66100, "unit": "ng·h/mL"},
      {"measurement": "AUC(0-inf)", "setting": "[4]", "result": 281000, "unit": "ng·h/mL"},
      {"measurement": "Cmax", "setting": "[4]", "result": 21400, "unit": "ng/mL"},
      {"measurement": "Tmax", "setting": "[4]", "result": 2, "unit": "h"},
      {"measurement": "AUC(0-t)", "setting": "[4]", "result": 276000, "unit": "ng·h/mL"},
      {"measurement": "AUC(0-inf)", "setting": "[5]", "result": 1040, "unit": "ng·h/mL"},
      {"measurement": "AUC(0-t)", "setting": "[5]", "result": 1010, "unit": "ng·h/mL"},
      {"measurement": "clearance", "setting": "C57BL/6, mouse, plasma, 3 mg/kg IV single dose, read-out: CLp (plasma clearance)", "result": 48, "unit": "mL/min/kg"},
      {"measurement": "Vd", "setting": "C57BL/6, mouse, plasma, 3 mg/kg IV single dose, read-out: Vdss (steady-state volume of distribution)", "result": 17, "unit": "L/kg"},
      {"measurement": "AUC(0-inf)", "setting": "[6]", "result": 871, "unit": "ng·h/mL"},
      {"measurement": "Cmax", "setting": "[6]", "result": 55.7, "unit": "ng/mL"},
      {"measurement": "Tmax", "setting": "[6]", "result": 2, "unit": "h"},
      {"measurement": "AUC(0-t)", "setting": "[6]", "result": 823, "unit": "ng·h/mL"},
      {"measurement": "AUC(0-inf)", "setting": "[7]", "result": 4790, "unit": "ng·h/mL"},
      {"measurement": "Cmax", "setting": "[7]", "result": 349, "unit": "ng/mL"},
      {"measurement": "Tmax", "setting": "[7]", "result": 2, "unit": "h"},
      {"measurement": "AUC(0-t)", "setting": "[7]", "result": 4520, "unit": "ng·h/mL"},
      {"measurement": "t 1/2", "setting": "plasma, 3 mg/kg IV single dose, 3 mg/kg", "result": 5, "unit": "h"}
    ]}
  ]
}
